{"source": "patent US20200281958A1", "about": "“STABLE FORMULATIONS FOR THE ORAL ADMINISTRATION OF AMPHOTERICIN B AND RELATED METHODS” (priority 2015, published 2020)", "origin": "cited, not measured here", "key": {"[1]": {"test_system": "monocytic cell lines and primary macrophages/monocytes"}, "[2]": {"test_system": "latently infected T cell lines"}, "[3]": {"conditions": "crystalline"}}, "data": [{"smiles": "C[C@@H]1[C@H](O)[C@@H](C)/C=C/C=C/C=C/C=C/C=C/C=C/C=C/[C@H](O[C@@H]2O[C@H](C)[C@@H](O)[C@H](N)[C@@H]2O)C[C@@H]2O[C@](O)(C[C@@H](O)C[C@@H](O)[C@H](O)CC[C@@H](O)C[C@@H](O)CC(=O)O[C@H]1C)C[C@H](O)[C@H]2C(=O)O", "note": "(relative stereo) [amphotericin B, [1R-(1R*,3S*,5R*,6R*,9R*,11R*,15S*,16R*,17R*,18S*,19E,21E,23E,25E, 27E,29E,31 E,33R*,35S*,36R*,37S)]-33-[(3-amino-3,6-dideoxy-β-D-mannopyranosyl)oxy] 1,3,5,6,9,11, 17,37-octahydroxy-15,16,18-trimethyl-13-oxo-14,39-dioxabicyclo-[33.3.1] nonatriaconta-19,21, 23,25,27,29,3 1-heptaene-36-carboxylic acid]", "values": [{"measurement": "reactivation of HIV-1 replication", "setting": "[1]", "result": "reactivate HIV-1 replication"}, {"measurement": "direct reactivation of latently infected T cell lines", "setting": "[2]; T cell lines alone", "result": "did not directly reactivate"}, {"measurement": "HIV-1 reactivation in T cell lines", "setting": "[2]; co-culture with primary macrophages", "result": "partial HIV-1 reactivation"}, {"measurement": "solubility in water", "setting": "[3]", "result": "insoluble in water"}]}]}
